Laboratory results: patent US20260297121A1, “MITHRAMYCIN (MTM) 2’ OXIMES” (University of Kentucky Research Foundation, priority 2023, published 2026)
Read-outs that look alike come from different tables or passages of the source.

Tests used:
BL1395 = assay: Cytotoxicity, resazurin fluorescence, BL1395; format: cell-based; details: Table 6; 72 hr; lymphocyte origin; read-out: GI50 BL1395
log P = format: physicochemical; details: Table 2
A549 = assay: Cytotoxicity, resazurin fluorescence, A549; format: cell-based; details: Homo sapiens, A549; Table 6; 72 hr; non EWS cells; read-out: GI50 A549
ES8 = assay: Cytotoxicity, resazurin fluorescence, ES8; format: cell-based; details: Homo sapiens, ES8; Table 6; 72 hr; EWS cells
ES7 = assay: Cytotoxicity, resazurin fluorescence, ES7; format: cell-based; details: Homo sapiens, ES7; Table 6; 72 hr; EWS cells
EWS cells = assay: Cytotoxicity, average over Ewing (EWS) cell panel; format: cell-based; details: Table 6; 72 hr; average of EWS cells
Experimental: (§1) Exemplary compounds of the presently-disclosed subject matter were assessed for cytotoxicity (Table 5) in Ewing sarcoma (TC32) and non-Ewing (PC3 prostate cancer). […] Cells (1000-5000/well) were seeded in 96-well plates and allowed to attach and grow for 24 hr prior to adding compounds in half-log increments from 0.3 nM-10 μM. Cell viability was assessed after 72 hr continuous incubation with compounds using resazurin fluorescence. GI50 values were estimated using GraphPad Prism.

PC3 [1] = assay: IC50 in PC3 cells; format: cell-based; details: Homo sapiens, PC-3, read-out: IC50 PC2, Table 2; head prints PC2, text PC3
Experimental: (§2) Exemplary compounds of the presently-disclosed subject matter were assessed for activity, including clearance, potency, and selectivity. Results from studies are compiled in Tables 2-4.
(§3) Desirable clearance was identified at lower values of mL hr^−1kg^−1 (e.g., about ≤10 mL hr^−1 kg^−1), desirable potency was identified at lower values of IC50 (e.g., about ≤10 nM in TC32 cells), and desired selectivity was identified at higher ratios of IC50 in PC3/IC50 in TC32 (e.g. about >10).

Non EWS cells = assay: Cytotoxicity, average over non-Ewing cell panel; format: cell-based; details: Table 6; 72 hr; average of non EWS cells; read-out: GI50 Average, Non EWS cells
Experimental: as §1

PC3 [2] = assay: Cytotoxicity, resazurin fluorescence, PC3; format: cell-based; details: Homo sapiens, PC-3, 72 h
Experimental: as §1

TC71 = assay: Cytotoxicity, resazurin fluorescence, TC71; format: cell-based; details: Homo sapiens, TC-71; Table 6; 72 hr; EWS cells
TC32 cells = assay: Potency IC50 in TC32 cells and selectivity; format: cell-based; details: Homo sapiens, TC-32, Table 2, read-out: IC50 TC32
Experimental: as §2, §3

5838 = assay: Cytotoxicity, resazurin fluorescence, 5838; format: cell-based; details: Table 6; 72 hr; express EWS-ERG
TC32 = assay: Cytotoxicity, resazurin fluorescence, TC32; format: cell-based; details: Homo sapiens, TC-32, 72 h
Experimental: as §1

DU145 = assay: Cytotoxicity, resazurin fluorescence, DU145; format: cell-based; details: Homo sapiens, DU-145; Table 6; 72 hr; non EWS cells; read-out: GI50 DU145
H460 = assay: Cytotoxicity, resazurin fluorescence, H460; format: cell-based; details: Homo sapiens, NCI-H460; Table 6; 72 hr; non EWS cells; read-out: GI50 H460
SK.ES1 = assay: Cytotoxicity, resazurin fluorescence, SK.ES1; format: cell-based; details: Homo sapiens, SK-ES1; Table 6; 72 hr; EWS cells
HepG2 = assay: Cytotoxicity, resazurin fluorescence, HepG2; format: cell-based; details: Homo sapiens, HepG2; Table 6; 72 hr; hepatic origin; read-out: GI50 HepG2
ES4 = assay: Cytotoxicity, resazurin fluorescence, ES4; format: cell-based; details: Table 6; 72 hr; EWS cells
PANC1 = assay: Cytotoxicity, resazurin fluorescence, PANC1; format: cell-based; details: Homo sapiens, PANC-1; Table 6; 72 hr; non EWS cells; read-out: GI50 PANC1
Hela = assay: Cytotoxicity, resazurin fluorescence, Hela; format: cell-based; details: Homo sapiens, HeLa; Table 6; 72 hr; non EWS cells; read-out: GI50 Hela
A673 = assay: Cytotoxicity, resazurin fluorescence, A673; format: cell-based; details: Homo sapiens, A673; Table 6; 72 hr; EWS cells
ES3 = assay: Cytotoxicity, resazurin fluorescence, ES3; format: cell-based; details: Table 6; 72 hr; EWS cells
LNCap = assay: Cytotoxicity, resazurin fluorescence, LNCap; format: cell-based; details: Homo sapiens, LNCaP; Table 6; 72 hr; non EWS cells; read-out: GI50 LNCap
RDES = assay: Cytotoxicity, resazurin fluorescence, RDES; format: cell-based; details: RD-ES; Table 6; 72 hr; EWS cells
RH41 = assay: Cytotoxicity, 72 hr resazurin assay, RH41 alveolar rhabdomyosarcoma; format: cell-based
Excerpt: (§4) A fibroblast cell line (HS68 (FIG. 2E)) was used as a non-tumor control. The area under the concentration-efficacy curve (AUC; possible range of 0-20000) was used to estimate an alternate metric to GI50 for cases of shallow efficacy (e.g., the limited effect in HS68 cells).

HS68 = assay: Cytotoxicity, 72 hr resazurin assay, HS68 fibroblast; format: cell-based
Excerpt: as §4

JR1 = assay: Cytotoxicity, 72 hr resazurin assay, JR1 embryonal rhabdomyosarcoma; format: cell-based
Excerpt: as §4

rhabdomyosarcoma cells = assay: Cytotoxicity, 72 hr resazurin assay, four rhabdomyosarcoma cell lines; format: cell-based; details: JR1, RD, RH30, RH41, read-out: GI50 range in the four cell lines tested
Excerpt: as §4

RH30 = assay: Cytotoxicity, 72 hr resazurin assay, RH30 alveolar rhabdomyosarcoma; format: cell-based
Excerpt: as §4

RD = assay: Cytotoxicity, 72 hr resazurin assay, RD embryonal rhabdomyosarcoma; format: cell-based
Excerpt: as §4

[3] = Table 6, non EWS cells, read-out: GI50 PC3
[4] = area under concentration-efficacy curve, possible range 0-20000

| Structure (SMILES) | GI50 (BL1395) [nM] | logP (log P) | GI50 (A549) [nM] | GI50 (ES8) [nM] | GI50 (ES7) [nM] | GI50 (EWS cells) [nM] | IC50 (PC3 [1]) [nM] | GI50 (Non EWS cells) [nM] | GI50 (PC3 [2]; [3]) [nM] | GI50 (TC71) [nM] | IC50 (TC32 cells) [nM] | GI50 5838 [nM] | GI50 (TC32; read-out: GI50 TC32, Table 5) [nM] | GI50 (H460) [nM] | GI50 (SK.ES1) [nM] | GI50 (HepG2) [nM] | GI50 (ES4) [nM] | GI50 (PANC1) [nM] | GI50 (Hela) [nM] | GI50 (A673) [nM] | further results |
| --- | --- | --- | --- | --- | --- | --- | --- | --- | --- | --- | --- | --- | --- | --- | --- | --- | --- | --- | --- | --- | --- |
| CO[C@H](C(=NOCCNC(=O)c1cc2cc(OC(F)(F)F)ccc2[nH]1)[C@@H](O)[C@@H](C)O)[C@@H]1Cc2cc3cc(O[C@H]4C[C@@H](O[C@H]5C[C@@H](O)[C@H](O)[C@@H](C)O5)[C@H](O)[C@@H](C)O4)c(C)c(O)c3c(O)c2C(=O)[C@H]1O[C@H]1C[C@@H](O[C@H]2C[C@@H](O[C@H]3C[C@](C)(O)[C@H](O)[C@@H](C)O3)[C@@H](O)[C@@H](C)O2)[C@H](O)[C@@H](C)O1 [YL-B171] | 51.5 | 2.93 | 114 | 36.7 | 26.7 | 31.7 | 10.7 | 97.6 | 49.3 | 19.5 | 4.62 | 37.1 | 26 | 69.5 | 35.4 | 202 | 20.4 | 138 | 105 | 51 | GI50 (PC3 [2]; read-out: GI50 PC3, Table 5): 49 nM; GI50 (TC32; read-out: GI50 TC32, Table 6, EWS cells): 25.6 nM; GI50 (DU145): 32.5 nM; GI50 (ES3): 31.5 nM; GI50 (LNCap): 117 nM; GI50 (RDES): 32.7 nM |
| COC(C(=NOCc1cc2ccccc2[nH]1)C(O)C(C)O)C1Cc2cc3cc(OC4CC(OC5CC(O)C(O)C(C)O5)C(O)C(C)O4)c(C)c(O)c3c(O)c2C(=O)C1OC1CC(OC2CC(OC3CC(C)(O)C(O)C(C)O3)C(O)C(C)O2)C(O)C(C)O1 (stereo not drawn) [YL-C09] | 24.1 | 1.9 | 22.6 | 31.5 | 14.5 | 21.1 | 5.65 | 34.5 | 19.3 | 11.5 | 1.96 | 27.5 | 17 | 21.5 | 18 | 80.1 | 16.6 | 33.4 | 27.1 | 38.1 | GI50 (RH41; Homo sapiens, Rh41, alveolar): 24.1 nM; AUC RH41 (RH41; [4]): 9239; GI50 (HS68; Homo sapiens, Hs68, fibroblast, non-tumor control): 1240 nM; AUC HS68 (HS68; [4]): 15517; AUC JR1 (JR1; [4]): 8554; GI50 (JR1; embryonal): 15 nM; GI50 (rhabdomyosarcoma cells): 15 to 25 nM; GI50 (RH30; Rh30, alveolar): 24.3 nM; AUC RH30 (RH30; [4]): 7400; GI50 (RD; Homo sapiens, RD, embryonal): 20.7 nM; AUC RD (RD; [4]): 8443; GI50 (ES3): 19.2 nM; GI50 (LNCap): 63.3 nM; GI50 (RDES): 16.8 nM |
